How the values were obtained:
[1] = relative to parent peptide or to the 11-13 sequence; cited from earlier work
[2] = system: C. albicans; test: C. albicans colony formation (CFU viability); type: cell-based, Candida albicans; details: for C. albicans viability / effectiveness against C. albicans compared with fluconazole: FIG. 4; for effectiveness against C. albicans compared with fluconazole: 10^−6 to 10^−4 M, same molar concentration as fluconazole; for ability of C albicans to form colonies: FIG. 3, 10^−12 to 10^−4 M, p<0.01 vs. control
Procedure: Clinical isolates of C. albicans were obtained from the collection of the Department of Microbiology, Ospedale Maggiore di Milano. Cultures of C. albicans were maintained on Sabouraud's agar slants and periodically transferred to Sabouraud's agar plates and incubated for 48 hours at 28° C. To prepare stationary growth-phase yeast, a colony was taken from the agar plate, transferred into 30 ml of Sabouraud-dextrose broth, and incubated for 72 hours at 32° C. Cells were centrifuged at 1000× g for ten minutes, and the pellet was washed twice with distilled water. Cells were counted and suspended in Hank's balanced salt solution (“HBSS”) to the desired concentration.
Cells were then washed in cold distilled water and diluted with HBSS to a concentration of 100 organisms/ml. One-milliliter aliquots were then dispensed on blood agar plates and incubated for 48 hours at 37° C. The organism's viability was estimated from the number of colonies formed.
[…] The effects of forskolin and ddAdo on the ability of C. albicans to form colonies were determined according to the procedures described in Example II.

[3] = relative to L-form tripeptide alpha-MSH (11-13); cited from earlier work
[4] = system: C. albicans; test: C. albicans germ tube formation induced by horse serum; type: cell-based, Candida albicans; details: 10^−6 M, 60 minutes at 37° C., germ tubes induced by horse serum
Procedure: C. albicans from stationary phase cultures were washed twice with distilled water and suspended in HBSS to a final concentration of 2×10^6/ml. Hyphal growth was induced by addition of 10% inactivated horse serum (GIBCO/BRL, Paisley, Great Britain) to yeast incubated for 45 minutes at 37° C. with continuous shaking. […] The percentage of filamentous cells was evaluated under a light microscope with the aid of a hemocytometer. Experiments were run in triplicate and at least 200 cells were scored. Photomicrographs were taken with a MC100 camera attached to an Axioskop Zeiss microscope.

[5] = system: S. aureus (ATCC 29213); test: S. aureus colony formation (viability); type: cell-based, Staphylococcus aureus; details: FIG. 1; significant at peptide concentrations of 10^−12 to 10^−4 M; 2 h at 37° C.
Procedure: (§1) Cultures of S. aureus (ATCC 29213) were obtained from the collection of the Department of Microbiology, Ospedale Maggiore di Milano. […] Cells were then washed in cold distilled water and diluted with HBSS to a concentration of 100 organisms/ml. One-milliliter aliquots were dispensed on blood agar plates and incubated for 24 hours at 37° C. Viability of the microorganisms was estimated from the colonies formed. In another set of experiments, 500 units of urokinase, a S. aureus growth enhancer, were also incubated with the bacteria (10^5/100 ml ) for four hours at 37° C. in a shaking water bath together with the peptides.

[6] = system: S. aureus; test: Urokinase induced growth of S. aureus; type: cell-based, Staphylococcus aureus; details: FIG. 2; 10^−6 M peptide; 500 units urokinase, 4 h
Procedure: as §1

[7] = system: C. albicans; test: Neutrophil killing of C. albicans; type: cell-based, human neutrophils; Candida albicans; details: FIG. 6; 10^−12 to 10^−4 M; p<0.01
Procedure: Venous blood (20 ml) from healthy volunteers was anticoagulated with heparin. Neutrophils were then isolated using dextran sedimentation and centrifugation with Ficoll-Hypaque (Sigma Chemical Co., St. Louis, Mo., USA). Erythrocytes were lysed via hypotonic shock with the resulting neutrophils representing at least 97% of the cell suspension. Cell viability, estimated by trypan blue exclusion, was greater than 98%. Neutrophils were resuspended in HBSS for the experiments. […] After incubation, the culture tubes were placed on ice to stop growth, and extracellular organisms were washed twice with centrifugation at 1000-× g at 4° C. A 2.5% sodium deoxycholate solution was added to the suspension, and the tubes were shaken for five minutes. Cold distilled water was then added to obtain a suspension of 10^6 cells/ml. Two 1/100 serial dilutions in HBSS were made to obtain a final suspension of 100 cells/ml. One-milliliter aliquots were then dispensed on blood agar plates and incubated for 48 hours at 37° C. Colony forming units were counted at the end of the incubation period with experiments running in triplicate and repeated using blood from five different donors.

[8] = system: C. albicans; test: cAMP content in permeabilized C. albicans (enzyme immunoassay); type: cell-based, Candida albicans; details: FIG. 7; 10^−6 M, three minutes
Procedure: The reactions were stopped after three minutes by the addition of ice cold ethanol. cAMP levels were measured in duplicate using a commercial enzyme immunoassay kit (Amersham, United Kingdom) after extraction via the liquid-phase method according to the manufacturer's instructions.

[9] = system: HIV-1; details: FIG. 11; 10^−5 M
From the text: (§2) The chronically HIV-1 infected promonocytic U1 cell line is an in vitro model of latent HIV infection in monocytes. These cells carry two integrated proviral copies of HIV, and constitutive expression of HIV is very low. Viral replication, however, as measured by RNA transcription, p24 antigen, or reverse transcriptase release, can be activated with different stimuli such as TNF-α, IL-6, IL-10, PMA or crowding of cells.
(§3) Crowding was achieved by seeding U1 cells at a density of 2×10^5/ml and maintaining them in culture at 37° C. in 5% CO2 without changing media for seven days. Cultures activated with cytokines or PMA were maintained for only 48 hours. Supernatants were then removed by centrifugation and assayed for p24 antigen using commercially available ELISA kits from Cellular Products, Inc. in Buffalo, N.Y., USA. Reverse transcriptase releases were also measured using a commercially available kit, ELISA Retrosys RT assay from Innovagen, Lund, Sweden.

[10] = system: NF-κB
Procedure: Cells were washed once with cold PBS, and twice with buffer A (10 mM Hepes pH 7.9, 1.5 mM MgCl2, 10 mM KCl, 0.5 mM PMSF and 0.5 mM DTT), centrifuged, and incubated for ten minutes on ice in buffer A plus 0.1% NP-40. Afterwards, the supernatants were removed, and the nuclear pellets were resuspended in 15 μl of buffer C (20 mM Hepes pH 7.9, 1.5 mM MgCl2, 0.42 M KCl, 0.2 mM EDTA, 25% glycerol, 0.5 mM PMSF, and 0.5 mM DTT), incubated for 15 minutes on ice, mixed, and then centrifuged. The supernatants were diluted with 75 μl of modified buffer D (20 mM Hepes, pH 7.9, 0.05 mM KCl, 0.2 mM EDTA, 20% glycerol, 0.5 mM PMSF, and 0.5 mM DTT) and stored at −80° C. […] Each oligonucleotide was annealed to its complementary strand and end-labeled with ^32P-γ-ATP using polynucleotide kinase. For the determination of specific bands, nuclear extracts were first incubated with 100 fold excess unlabeled probe for five minutes, before incubation with a labeled probe. […] The gels were dried and autoradiographed.

[11] = system: HIV-1 RNA; details: FIG. 12; PMA stimulated U1 cells
[12] = system: HIV-1; details: FIG. 10; broad range of concentrations; TNF-α 10 ng/ml
From the text: as §2
Pilot experiments were first performed to determine optimal cell density, stimuli concentration, and kinetics of HIV-1 p24 antigen production using these culture conditions. Before use, cells were washed three times with HBSS to remove extracellular viruses.
as §3

8-13 sequence: alpha-MSH 8-13 fragment (RWGKPV; Designed polypeptide with anti-inflammatory, anti-microbial, anti-fungal, and anti-viral properties.)
antipyretic potency [1]: greater than that of the 11-13 sequence

9-13 sequence: alpha-MSH 9-13 fragment (WGKPV; Designed polypeptide with anti-inflammatory, anti-microbial, anti-fungal, and anti-viral properties.)
antipyretic potency [1]: almost devoid of activity

10-13 sequence: alpha-MSH (11-13) with glycine added to form the 10-13 sequence (GKPV; Designed pollypeptide with anti-inflammatory, anti-microbial, anti-fungal, and anti-viral properties.)
antipyretic potency [1]: slightly decreased potency

ACTH (1-39): adrenocorticotropic hormone (1-39) (SYSMEHFRWGKPVGKKRRPVKVYPAGEDDEASEAFPLEF; Designed polypeptide with anti-inflammatory, anti-microbial, anti-fungal, and anti-viral properties/naturally occurring peptide.; listed as Homo sapiens) [reference compound]
C. albicans viability [2]: did not reduce

ACTH fragment (18-39): ACTH fragment (18-39) (CLIP) (RPVKVYPAGEDDEASEAFPLEF; Designed polypeptide with anti-inflammatory, anti-microbial, anti-fungal, and anti-viral properties.) [reference compound]
C. albicans viability [2]: did not reduce

Ac-[D-K11]-alpha-MSH 11-13-NH2 [reference compound]
anti-inflammatory activity / general potency [3]: same general potency

HFRWGKPV (Ac-HFRWGKPV-NH2) [alpha-MSH (6-13)]
effectiveness against C. albicans compared with fluconazole [2]: most effective | reduction in the number of filamentous cells [4]: approximately 50%

Lysine-Proline-Valine [alpha-MSH (11-13)]
S. aureus colony formation [5]: inhibited | growth enhancing effect of urokinase on S. aureus [6]: significantly countered | ability of C albicans to form colonies [2]: greatly reduced | effectiveness against C. albicans compared with fluconazole [2]: most effective | growth of C. albicans relative to the control group ([2]; FIG. 8, p<0.01): significantly inhibited | neutrophil killing of C. albicans [7]: enhanced | cAMP content in C. albicans [8]: enhanced | reverse transcriptase release from U1 cells induced by IL-6, IL-10, PMA and in crowding condition [9]: inhibited | NF-κB activation, TNF-α stimulated cells [10]: significantly reduced | NF-κB activation, resting cells [10]: did not alter | transcription of spliced and unspliced HIV-1 RNA [11]: inhibited

MEHFRWG [alpha-MSH sequence (4-10)]
anti-inflammatory activity / general potency [3]: little antipyretic and anti-inflammatory activity

SYSMEHFRWGKPV [alpha-MSH (1-13)]
S. aureus colony formation [5]: inhibited | growth enhancing effect of urokinase on S. aureus [6]: significantly countered | ability of C albicans to form colonies [2]: greatly reduced | effectiveness against C. albicans compared with fluconazole [2]: most effective | reduction in the number of filamentous cells [4]: 28-32% | neutrophil killing of C. albicans [7]: enhanced | cAMP content in C. albicans [8]: enhanced | p24 antigen release from TNF-α stimulated U1 cells [12]: significantly inhibited

[Nle^4, D-Phe^7]-alpha-MSH
antipyretic potency [1]: approximately ten times more potent

dideoxyadenosine [ddAdo, reference compound]
effect of ddAdo on alpha-MSH (1-13) and (11-13) inhibition of C. albicans growth ([2]; FIG. 9, ddAdo 25, 50, and 100×10^−5 M for two hours, then peptides two hours): reverse the effect
